In PMC12181400, “Leveraging viral genome sequences and machine learning models for identification of potentially selective antiviral agents” (Communications Chemistry, 2025):
Structures can show the parent of a compound that is named as a salt. Where two headings read alike, the source gives them in different places.

Tests used:
[1] = tested on: SARS-CoV-2 Spike protein containing PPs, entry into HEK293-ACE2 cells; experiment: microbe, parasite or virus in culture; format: cell-based; conditions: PP entry, HEK293-ACE2, 48 h, mean ± SD of two independent experiments; for IC50: Severe acute respiratory syndrome coronavirus 2, 11 concentrations
[2] = tested on: wild-type (WT) and drug-resistant HIV-1 isolates; design: method as in pmid 18043758; conditions: multiple wild-type and drug-resistant HIV-1 isolates; ref pmid 18043758; cited from earlier work
[3] = tested on: cell viability (tox21-ar-mda-kb2-luc-antagonist-p2); conditions: cited from earlier work
[4] = tested on: cell viability (tox21-car-agonist-p1); conditions: cited from earlier work
[5] = tested on: cell viability (tox21-ap1-agonist-p1); conditions: cited from earlier work
[6] = tested on: cell viability (tox21-car-antagonist-p1); conditions: cited from earlier work
[7] = tested on: cell viability (tox21-are-bla-p1); conditions: cited from earlier work
[8] = tested on: cell viability (tox21-ar-mda-kb2-luc-agonist-p3); conditions: cited from earlier work
[9] = tested on: IN; design: method as in pmid 19265512; conditions: in vitro strand transfer assay; ref pmid 19265512; read-out: IC50, inhibition of IN; cited from earlier work
[10] = tested on: MT-4 cells; design: method as in pmid 19265512; conditions: MT-4 cells in the presence of 20% NHS; ref pmid 19265512; read-out: antiviral EC90; cited from earlier work
[11] = curve rank −9 to 9, 0 = inactive, ref NCATS Tox21 public data browser

| Compound | tox21-ar-mda-kb2-luc-antagonist-p2-viability (curve rank) [3] | tox21-car-agonist-p1-viability (curve rank) [4] | tox21-ap1-agonist-p1-viability (curve rank) [5] | tox21-car-antagonist-p1-viability (curve rank) [6] | tox21-are-bla-p1-viability (curve rank) [7] | tox21-ar-mda-kb2-luc-agonist-p3-viability (curve rank) [8] | tox21-ar-mda-kb2-luc-antagonist-p2-viability (curve rank) [3, 11] | tox21-car-agonist-p1-viability (curve rank) [4, 11] | tox21-ap1-agonist-p1-viability (curve rank) [5, 11] | tox21-car-antagonist-p1-viability (curve rank) [6, 11] | tox21-are-bla-p1-viability (curve rank) [7, 11] | tox21-ar-mda-kb2-luc-agonist-p3-viability (curve rank) [8, 11] | further results |
| --- | --- | --- | --- | --- | --- | --- | --- | --- | --- | --- | --- | --- | --- |
| COc1ccc(-c2csc3ncnc(N(C)CCO)c23)cc1 [NCGC00608516] |  |  |  |  |  |  |  |  |  |  |  |  | efficacy [1]: −93.10 ± 32.33%; IC50 [1]: 11700 ± 2820 nM |
| COc1ccc(C(CNC(=O)c2ccc3ccccc3n2)N2CCCC2)cc1 (stereo not shown) [NCGC00622469] |  |  |  |  |  |  |  |  |  |  |  |  | efficacy [1]: −64.06 ± 9.68%; IC50 [1]: 5910 ± 7000 nM |
| C=C(C)[C@@H]1CC[C@]2(C(=O)O)CC[C@]3(C)[C@H](CC[C@@H]4[C@@]5(C)CC[C@H](OC(=O)CC(C)(C)C(=O)O)C(C)(C)[C@@H]5CC[C@]43C)[C@@H]12 [bevirimat, 3-O-(3',3'-dimethylsuccinyl) betulinic acid] |  |  |  |  |  |  |  |  |  |  |  |  | in vitro antiviral activity [2]: 10 nM |
| COc1ccc(-c2nc3ccccc3n2Cc2ccccc2)cc1COc1ccc(NC(C)=O)cc1 [NCGC00166392] |  |  |  |  |  |  |  |  |  |  |  |  | efficacy [1]: −83.25 ± 8.42%; IC50 [1]: 1370 nM |
| N=c1ccn(C2OC(COP(=O)(O)O)C(O)C2O)c(=O)[nH]1 (stereo not shown) [NCGC00014029] |  |  |  |  |  |  |  |  |  |  |  |  | efficacy [1]: −76.63 ± 14.92%; IC50 [1]: 1310 ± 320 nM |
| O=C(Nc1nc(-c2ccc(F)cc2)cs1)c1c(F)cccc1F [NCGC00633127] |  |  |  |  |  |  |  |  |  |  |  |  | efficacy [1]: −67.42 ± 5.30%; IC50 [1]: 4590 ± 370 nM |
| C[C@]12CCC(=O)C=C1CC[C@@H]1[C@@H]2[C@@H](O)C[C@@]2(C)[C@H]1CC[C@]2(O)C(=O)CO [Hydrocortisone] | 0 | 0 | 0 | 0 | 0 | 0 |  |  |  |  |  |  |  |
| FC(F)(F)c1ccccc1-n1ccnc1 [1-[2-(Trifluoromethyl)phenyl]-1H-imidazole] |  |  |  |  |  |  | 0 | 0 | 0 | 0 | 0 | 0 |  |
| Cc1cc(O)ccc1Cl [4-Chloro-3-methylphenol] |  |  |  |  |  |  | 0 | 0 | 0 | 0 | 0 | 0 |  |
| CC(C)NCC(O)COc1ccc(COCCOC(C)C)cc1 (stereo not shown) [Bisoprolol fumarate] | 0 | 0 | 0 | 0 | 0 | 0 |  |  |  |  |  |  |  |
| Nc1ccc(S(=O)(=O)Nc2ccccn2)cc1 [Sulfapyridine] | 0 | 0 | 0 | 0 | 0 | 0 |  |  |  |  |  |  |  |
| NC(=O)c1ccc([N+](=O)[O-])cc1Cl [2-Chloro-4-nitrobenzamide] |  |  |  |  |  |  | 0 | 0 | 0 | 0 | 0 | 0 |  |
| CCCCCC(C)N.O=S(=O)(O)O (stereo not shown) [2-Aminoheptane sulfate] |  |  |  |  |  |  | 0 | 0 | 0 | 0 | 0 | 0 |  |
| CN(C)CCOC(=O)C(c1ccccc1)C1(O)CCCC1 (stereo not shown) [Cyclopentolate hydrochloride] |  |  |  |  |  |  | 0 | 0 | 0 | 0 | 0 | 0 |  |
| CN1C(=O)CC[C@H]1c1cccnc1 [Cotinine] | 0 | 0 | 0 | 0 | 0 | 0 |  |  |  |  |  |  |  |
| CCOC(=O)c1cncn1[C@H](C)c1ccccc1 [Etomidate] |  |  |  |  |  |  | 0 | 0 | 0 | 0 | 0 | 0 |  |
| Oc1ccc(Cl)cc1 [4-Chlorophenol] |  |  |  |  |  |  | 0 | 0 | 0 | 0 | 0 | 0 |  |
| COCCc1ccc(OCC(O)CNC(C)C)cc1 (stereo not shown) [Metoprolol tartrate] |  |  |  |  |  |  | 0 | 0 | 0 | 0 | 0 | 0 |  |
| CCCCC1(COC(=O)CCC(=O)O)C(=O)N(c2ccccc2)N(c2ccccc2)C1=O [Suxibuzone] | 0 | 0 | 0 | 0 | 0 | 0 |  |  |  |  |  |  |  |
| COc1ccc(C2CNC(=O)C2)cc1OC1CCCC1 (stereo not shown) [Rolipram] |  |  |  |  |  |  | 0 | 0 | 0 | 0 | 0.67 | 0 |  |
| CC1Cc2ccccc2N1NC(=O)c1ccc(Cl)c(S(N)(=O)=O)c1 (stereo not shown) [Indapamide] | 0 | 0 | 0 | 0 | 0 | 0 |  |  |  |  |  |  |  |
| Cn1c(=O)c(C(=O)NCCO)c(O)c2ncc(Cc3ccc(F)cc3)cc21 [GSK-364735] |  |  |  |  |  |  |  |  |  |  |  |  | IC50 [9]: 8 nM; EC90 [10]: 40 nM |
| C/C(=C(\CCOP(=O)(O)O)SC(=O)c1ccccc1)N(C=O)Cc1cnc(C)nc1N [Benfotiamine] | 0 | 0 | 0 | 0 | 0 | 0 |  |  |  |  |  |  |  |
| CC(C)(C(=O)c1cccnc1)c1cccnc1 [Metyrapone] | 0 | 0 | 0 | 0 | 0 | 0 |  |  |  |  |  |  |  |
| OC(c1ccccc1)(c1ccccc1)C1CCNCC1 [Azacyclonol] |  |  |  |  |  |  | 0 | 0 | 0 | 0 | 0 | 0 |  |
| OCC(O)CN1CCN(c2ccccc2)CC1 (stereo not shown) [Dropropizine] |  |  |  |  |  |  | 0 | 0 | 0 | 0 | 0 | 0 |  |
| CCN1CCC[C@H]1CNC(=O)c1c(OC)ccc(Br)c1OC [Remoxipride] | 0 | 0 | 0 | 0 | 0 | 0 |  |  |  |  |  |  |  |
| Cc1cccc(C(=O)O)c1O [2-Hydroxy-3-methylbenzoic acid] | 0 | 0 | 0 | 0 | 0 | 0 |  |  |  |  |  |  |  |
| O=C(Oc1ccccc1C(=O)O)c1ccccc1O [Salsalate] | 0 | 0 | 0 | 0 | 0 | 0 |  |  |  |  |  |  |  |
| CCN(CC)CCOC(=O)C(c1ccccc1)c1ccccc1 [Adiphenine hydrochloride] | 0 | 0 | 0 | 0 | 0 | 0 |  |  |  |  |  |  |  |
